Source: patent publication US11111245B2, “Derivatives of N-cycloalkyl/heterocycloalkyl-4-(imidazo[1,2-a]pyridine)pyrimidin-2-amine as therapeutic agents” (Aucentra Therapeutics Pty Ltd, priority 2017, dated 2021)

Tests used:
CDKs and other kinases [1] = biological target: T1, CDKs and other kinases (Homo sapiens, UniProt P06493); experiment: Radiometric kinase assay (Eurofins Pharma Discovery or Reaction Biology Corporation Kinase Profiler); assay type: biochemical; settings: CDK1B; for remaining activity at 10 µM: compound at 10 μM, read-out: residual activity (%) at 10 μM CDK1B; for Ki: read-out: CDK inhibition, Ki (μM) CDK1B
T1 construct: other: CDK1B; residual activity (%) at 10 μM CDK1B; compound at 10 μM
Summary of the method: (§1)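 Other CDKs and further kinases were profiled externally by radiometric assay. In-house ADP Glo assays covered CDK4/D1 and CDK6/D3 (RB-CTF substrate, pH 7.5 Tris buffer with MgCl2, DTT, BSA) and CDK9/T1 (RBER-IRStide substrate), 40 min at 37° C.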

CDKs and other kinases [2] = biological target: T2, CDKs and other kinases (Homo sapiens, UniProt P24941); experiment: as above; assay type: biochemical; settings: CDK2A; for remaining activity at 10 µM: compound at 10 μM, read-out: residual activity (%) at 10 μM CDK2A; for Ki: read-out: CDK inhibition, Ki (μM) CDK2A
T2 construct: other: CDK2A; residual activity (%) at 10 μM CDK2A; compound at 10 μM
Summary of the method: as §1

CDKs and other kinases [3] = biological target: T3, CDKs and other kinases (Homo sapiens, UniProt P50613); experiment: as above; assay type: biochemical; settings: CDK7H; for remaining activity at 10 µM: compound at 10 μM, read-out: residual activity (%) at 10 μM CDK7H; for Ki: read-out: CDK inhibition, Ki (μM) CDK7H
T3 construct: other: CDK7H; residual activity (%) at 10 μM CDK7H; compound at 10 μM
Summary of the method: as §1

leukemia cell lines = experiment: Resazurin cell viability assay on leukemia cell lines (72 h growth inhibition, GI50); assay type: cell-based; settings: Homo sapiens, MV4-11 cells
Summary of the method: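 Viability is measured by MTT in solid tumour cells and by resazurin in leukaemia cells. Reported values are GI50s calculated with non-linear regression analysis.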

CDK4/D1 = CDK4/D1 (Homo sapiens, UniProt P11802); experiment: ADP Glo Kinase assay CDK4/D1; assay type: biochemical; settings: CDK4D1; for remaining activity at 10 µM: compound at 10 μM, read-out: residual activity (%) at 10 μM CDK4D1
Summary of the method: (§2)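 Luminescent ADP detection measured activity after a 40 min, 37° C ATP-initiated reaction, using RB-CTF for CDK4/D1 and CDK6/D3 and RBER-IRStide for CDK9/T1. Controls lacked or contained kinase. Values: IC50 by four-parameter nonlinear regression, Ki from ATP Km.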

CDK6/D3 = CDK6/D3 (Homo sapiens, UniProt Q00534); experiment: ADP Glo Kinase assay CDK6/D3; assay type: biochemical; settings: CDK6D3; for remaining activity at 10 µM: compound at 10 μM, read-out: residual activity (%) at 10 μM CDK6D3
Summary of the method: as §2

CDK9/T1 = CDK9/T1 (Homo sapiens, UniProt P50750); experiment: ADP Glo Kinase assay CDK9/T1; assay type: biochemical; settings: CDK9T1; read-out: CDK inhibition, Ki (μM) CDK9T1
Summary of the method: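 ADP Glo luminescence, in-house: CDK4/D1, CDK6/D3 on RB-CTF substrate (Tris pH 7.5, MgCl2, DTT, BSA); CDK9/T1 on RBER-IRStide. Reaction 40 min, 37° C after ATP addition. 10-point 1:3 series, 10 μM to 0.5 nM. IC50 by 4-parameter logistic; Ki derived using ATP Km.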

T1 sequence (P06493 whole entry): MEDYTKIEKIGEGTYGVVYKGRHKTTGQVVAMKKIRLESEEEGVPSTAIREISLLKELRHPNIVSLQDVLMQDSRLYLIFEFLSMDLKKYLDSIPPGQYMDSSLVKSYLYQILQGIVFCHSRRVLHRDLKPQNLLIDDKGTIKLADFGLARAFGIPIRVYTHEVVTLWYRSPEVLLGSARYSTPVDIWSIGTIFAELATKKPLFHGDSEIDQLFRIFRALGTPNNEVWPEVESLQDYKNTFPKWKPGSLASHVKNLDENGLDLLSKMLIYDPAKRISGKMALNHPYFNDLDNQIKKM
CDK9/T1, sequence (P50750 whole entry): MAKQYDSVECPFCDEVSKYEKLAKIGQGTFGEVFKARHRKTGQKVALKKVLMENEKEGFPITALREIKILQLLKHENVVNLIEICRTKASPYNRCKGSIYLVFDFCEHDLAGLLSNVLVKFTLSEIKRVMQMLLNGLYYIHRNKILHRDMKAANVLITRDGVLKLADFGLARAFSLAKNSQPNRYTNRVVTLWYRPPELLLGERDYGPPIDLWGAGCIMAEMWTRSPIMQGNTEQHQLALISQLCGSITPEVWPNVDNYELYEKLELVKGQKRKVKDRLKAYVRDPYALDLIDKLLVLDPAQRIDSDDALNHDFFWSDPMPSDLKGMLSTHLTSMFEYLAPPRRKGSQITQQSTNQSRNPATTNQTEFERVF
CDK9/T1, sequence (O60563 whole entry partner): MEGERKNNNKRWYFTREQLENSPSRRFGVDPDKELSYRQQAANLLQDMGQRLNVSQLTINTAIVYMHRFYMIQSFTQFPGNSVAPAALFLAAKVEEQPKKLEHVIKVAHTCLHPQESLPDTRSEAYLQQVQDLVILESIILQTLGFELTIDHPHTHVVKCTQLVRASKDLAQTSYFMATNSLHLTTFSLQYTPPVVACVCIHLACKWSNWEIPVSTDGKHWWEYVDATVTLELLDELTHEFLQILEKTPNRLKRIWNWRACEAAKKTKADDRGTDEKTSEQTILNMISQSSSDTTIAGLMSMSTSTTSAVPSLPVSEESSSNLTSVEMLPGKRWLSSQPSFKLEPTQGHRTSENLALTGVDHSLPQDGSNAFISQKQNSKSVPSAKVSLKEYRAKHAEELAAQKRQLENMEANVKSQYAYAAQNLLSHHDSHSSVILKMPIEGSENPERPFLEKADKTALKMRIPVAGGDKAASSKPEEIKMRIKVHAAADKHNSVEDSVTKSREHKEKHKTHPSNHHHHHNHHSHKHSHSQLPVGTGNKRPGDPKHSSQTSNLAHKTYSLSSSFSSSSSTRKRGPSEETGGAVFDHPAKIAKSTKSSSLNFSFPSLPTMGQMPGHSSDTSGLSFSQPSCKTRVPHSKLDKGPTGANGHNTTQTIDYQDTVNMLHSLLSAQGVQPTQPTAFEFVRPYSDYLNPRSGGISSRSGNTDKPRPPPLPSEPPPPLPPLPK
T3 sequence (P50613 whole entry): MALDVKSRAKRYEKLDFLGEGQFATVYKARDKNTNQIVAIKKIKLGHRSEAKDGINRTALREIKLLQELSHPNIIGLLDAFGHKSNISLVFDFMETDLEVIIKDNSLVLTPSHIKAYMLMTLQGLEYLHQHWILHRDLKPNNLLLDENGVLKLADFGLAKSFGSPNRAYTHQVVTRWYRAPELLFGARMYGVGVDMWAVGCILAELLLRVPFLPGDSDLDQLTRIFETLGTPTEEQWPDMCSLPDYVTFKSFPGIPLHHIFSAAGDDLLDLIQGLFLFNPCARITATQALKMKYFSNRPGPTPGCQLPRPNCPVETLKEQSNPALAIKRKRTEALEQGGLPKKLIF
CDK6/D3, sequence (Q00534 whole entry): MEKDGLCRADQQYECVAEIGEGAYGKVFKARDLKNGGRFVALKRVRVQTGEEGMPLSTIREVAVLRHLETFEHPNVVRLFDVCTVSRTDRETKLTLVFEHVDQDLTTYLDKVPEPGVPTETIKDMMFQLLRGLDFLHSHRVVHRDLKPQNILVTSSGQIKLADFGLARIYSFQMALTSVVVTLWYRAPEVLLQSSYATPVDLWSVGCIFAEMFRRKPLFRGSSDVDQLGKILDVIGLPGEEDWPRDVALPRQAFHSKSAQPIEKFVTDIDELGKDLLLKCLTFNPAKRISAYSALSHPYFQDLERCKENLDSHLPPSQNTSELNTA
CDK6/D3, sequence (P30281 whole entry partner): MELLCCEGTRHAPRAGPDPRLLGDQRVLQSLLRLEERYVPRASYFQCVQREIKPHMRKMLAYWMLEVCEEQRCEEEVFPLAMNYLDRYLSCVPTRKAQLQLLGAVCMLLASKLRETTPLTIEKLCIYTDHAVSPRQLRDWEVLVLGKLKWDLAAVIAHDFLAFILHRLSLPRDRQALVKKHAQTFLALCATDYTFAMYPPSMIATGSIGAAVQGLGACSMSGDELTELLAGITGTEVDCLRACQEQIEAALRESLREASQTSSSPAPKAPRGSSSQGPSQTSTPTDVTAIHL
CDK4/D1, sequence (P11802 whole entry): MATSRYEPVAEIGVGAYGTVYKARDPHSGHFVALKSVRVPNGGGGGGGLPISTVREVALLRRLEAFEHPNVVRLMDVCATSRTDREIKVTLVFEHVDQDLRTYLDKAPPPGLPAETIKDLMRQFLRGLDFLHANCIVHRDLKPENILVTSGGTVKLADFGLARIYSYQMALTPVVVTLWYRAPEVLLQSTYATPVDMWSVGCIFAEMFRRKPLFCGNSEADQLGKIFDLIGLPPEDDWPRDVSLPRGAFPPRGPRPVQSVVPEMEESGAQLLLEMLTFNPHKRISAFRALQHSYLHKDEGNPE
CDK4/D1, sequence (P24385 whole entry partner): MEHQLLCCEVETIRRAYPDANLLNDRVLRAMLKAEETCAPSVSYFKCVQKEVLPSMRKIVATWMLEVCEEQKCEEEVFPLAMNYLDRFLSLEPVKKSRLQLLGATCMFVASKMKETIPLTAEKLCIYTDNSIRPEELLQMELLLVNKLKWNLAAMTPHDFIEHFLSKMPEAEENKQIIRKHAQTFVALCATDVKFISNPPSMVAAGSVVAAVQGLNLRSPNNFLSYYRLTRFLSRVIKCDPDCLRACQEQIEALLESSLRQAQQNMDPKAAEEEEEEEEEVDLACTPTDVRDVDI

Row | SMILES | remaining activity at 10 µM (CDKs and other kinases [1]) [%] | remaining activity at 10 µM (CDKs and other kinases [2]) [%] | remaining activity at 10 µM (CDKs and other kinases [3]) [%] | GI50 (leukemia cell lines) [µM] | remaining activity at 10 µM (CDK4/D1) [%] | remaining activity at 10 µM (CDK6/D3) [%] | Ki (CDK9/T1) [µM] | Ki (CDKs and other kinases [1]) [µM] | Ki (CDKs and other kinases [2]) [µM] | Ki (CDKs and other kinases [3]) [µM] | residual activity at 10 µM (CDKs and other kinases [3]) [%] | Ki (CDK4/D1; read-out: CDK inhibition, Ki (μM) CDK4D1) [µM] | Ki (CDK6/D3; read-out: CDK inhibition, Ki (μM) CDK6D3) [µM]
1 | N[C@H]1CC[C@H](Nc2ncc(F)c(-c3cnc4cc(-c5cccnc5)ccn34)n2)CC1 [Compound 45, (1r,4r)-N^1-(5-Fluoro-4-(7-(pyridin-3-yl)imidazo[1,2-a]pyridin-3-yl)pyrimidin-2-yl)cyclohexane-1,4-diamine] | 0 | 0 | 2 | < 0.001 | 5 | 0 | 0.006 | – | – | – | – | – | –
2 | N[C@H]1CC[C@H](Nc2ncc(Cl)c(-c3cnc4ccc(-c5ccc(N6CCNCC6)nc5)cn34)n2)CC1 [Compound 84, (1r,4r)-N^1-(5-Chloro-4-(6-(6-(piperazin-1-yl)pyridin-3-yl)imidazo[1,2-a]pyridin-3-yl)pyrimidin-2-yl)cyclohexane-1,4-diamine] | 51 | 39 | 10 | 0.035 ± 0.006 | 9 | 12 | 0.033 | – | – | – | – | – | –
3 | Cc1cnc(N[C@H]2CC[C@H](N)CC2)nc1-c1cnc2ccc(-c3ccc(N4CCOCC4)nc3)cn12 [Compound 61, (1r,4r)-N^1-(5-Methyl-4-(6-(6-morpholinopyridin-3-yl)imidazo[1,2-a]pyridin-3-yl)pyrimidin-2-yl)cyclohexane-1,4-diamine] | 79 | 63 | 37 | 0.083 ± 0.035 | 17 | 89 | 0.49 | – | – | – | – | – | –
4 | Cc1ccc(Nc2ccc3ncc(-c4nc(N[C@H]5CC[C@H](N)CC5)ncc4C)n3c2)cn1 [Compound 69, (1r,4r)-N^1-(5-Methyl-4-(6-((6-methylpyridin-3-yl)amino)imidazo[1,2-a]pyridin-3-yl)pyrimidin-2-yl)cyclohexane-1,4-diamine] | – | – | – | 0.199 ± 0.02 | 24 | 25 | 0.023 | 2.95 | 0.61 | 0.95 | – | – | –
5 | Cc1cnc(N[C@H]2CC[C@H](N)CC2)nc1-c1cnc2ccccn12 [Compound 8, (1r,4r)-N^1-(4-(Imidazo[1,2-a]pyridin-3-yl)-5-methylpyrimidin-2-yl)cyclohexane-1,4-diamine] | – | – | – | 0.066 ± 0.007 | 11 | 34 | 0.035 | 3.81 | 0.35 | 0.38 | – | – | –
6 | Cc1cnc(N[C@H]2CC[C@H](N)CC2)nc1-c1cnc2cc(Nc3cccnc3)ccn12 [Compound 55, (1r,4r)-N^1-(5-Methyl-4-(7-(pyridin-3-ylamino)imidazo [1,2-a]pyridin-3-yl)pyrimidin-2-yl)cyclohexane-1,4-diamine] | 24 | 5 | 8 | 0.558 ± 0.13 | 5 | 2 | 0.069 | – | – | – | – | – | –
7 | Cc1cnc(N[C@H]2CC[C@H](NC3CCN(C)CC3)CC2)nc1-c1cnc2ccc(-c3ccccc3)cn12 [Compound 90, (1r,4r)-N^1-(5-Methyl-4-(6-phenylimidazo[1,2-a]pyridin-3-yl)pyrimidin-2-yl)-N4-(1-methylpiperidin-4-yl) cyclohexane-1,4-diamine] | 57 | 44 | – | 0.229 ± 0.015 | 24 | 80 | 0.211 | – | – | – | 295 | – | –
8 | N[C@H]1CC[C@H](Nc2ncc(Cl)c(-c3cnc4c(-c5cccnc5)cc(C(F)(F)F)cn34)n2)CC1 [Compound 86, (1r,4r)-N^1-(5-Chloro-4-(8-(pyridin-3-yl)-6-(trifluoromethyl)imidazo[1,2-a]pyridin-3-yl)pyrimidin-2-yl)cyclohexane-1,4-diamine] | – | – | – | 0.086 ± 0.005 | 25 | 47 | 0.216 | 2.64 | 0.25 | 0.044 | – | – | –
9 | N[C@H]1CC[C@H](Nc2ncc(Cl)c(-c3cnc4ccc(NC(=O)c5ccccc5)cn34)n2)CC1 [Compound 87, N-(3-(2-(((1r,4r)-4-Aminocyclohexyl)amino)-5-chloropyrimidin-4-yl)imidazo[1,2-a]pyridin-6-yl) benzamide] | 31 | 19 | 14 | 0.135 ± 0.057 | 73 | 39 | 0.073 | – | – | – | – | – | –
10 | CN(C)S(=O)(=O)c1ccc(-c2ccc3ncc(-c4nc(N[C@H]5CC[C@H](N)CC5)ncc4F)n3c2)cc1 [Compound 48, 4-(3-(2-(((1r,4r)-4-Aminocyclohexyl)amino)-5-fluoropyrimidin-4-yl)imidazo[1,2-a]pyridin-6-yl)-N,N-dimethylbenzenesulfonamide] | 13 | 3 | 8 | 0.002 | 4 | 45 | 0.004 | – | – | – | – | – | –
11 | Cc1cnc(NC2CCCC(N)C2)nc1-c1cnc2ccc(-c3ccccc3)cn12 (stereo not drawn) [Compound 94, N^1-(5-Methyl-4-(6-phenylimidazo[1,2-a]pyridin-3-yl)pyrimidin-2-yl)cyclohexane-1,3-diamine] | 20 | 12 | 10 | 0.748 ± 0.063 | 25 | 45 | 0.388 | – | – | – | – | – | –
12 | N[C@H]1CC[C@H](Nc2ncc(Cl)c(-c3cnc4ccc(-c5cccnc5)cn34)n2)CC1 [Compound 35, (1r,4r)-N^1-(5-Chloro-4-(6-(pyridin-3-yl)imidazo[1,2-a]pyridin-3-yl)pyrimidin-2-yl)cyclohexane-1,4-diamine] | – | – | – | 0.011 ± 0.002 | – | – | 0.007 | 0.88 | 0.26 | 0.27 | – | 0.79 | 0.394
13 | CS(=O)(=O)N[C@H]1CC[C@H](Nc2ncc(Cl)c(-c3cnc4c(Br)cc(C(F)(F)F)cn34)n2)CC1 [Compound 18, N-((1r,4r)-4-((4-(8-Bromo-6-(trifluoromethyl)imidazo [1,2-a]pyridin-3-yl)-5-chloropyrimidin-2-yl)amino)cyclohexyl)methanesulfonamide] | – | – | – | 6.11 ± 1.14 | 9 | 41 | 0.148 | 0.028 | 0.007 | 0.001 | – | – | –
14 | COc1cnc(N[C@H]2CC[C@H](N)CC2)nc1-c1cnc2ccccn12 [Compound 11, (1r,4r)-N^1-(4-(Imidazo[1,2-a]pyridin-3-yl)-5-methoxypyrimidin-2-yl)cyclohexane-1,4-diamine] | 75 | 63 | 26 | 0.009 ± 0.001 | 40 | 27 | 0.291 | – | – | – | – | – | –
15 | Cc1cnc(N[C@]23C[C@@]4(C)C[C@](C)(C[C@](O)(C4)C2)C3)nc1-c1cnc2ccc(-c3ccccc3)cn12 [Compound 100, (1s,3R,5S,7r)-3,5-Dimethyl-7-((5-methyl-4-(6-phenylimidazo[1,2-a]pyridin-3-yl)pyrimidin-2-yl)amino)adamantan-1-ol] | 87 | 79 | 98 | > 10 | 96 | 84 | > 5 | – | – | – | – | – | –
